Columns and labels:
MIA PaCa-2 cells [1] = assay: Cell cycle analysis (PI, flow cytometry); conditions: MIA PaCa-2, 0.5 µM, 48 h
caspase-3/7 = assay: CellEvent Caspase-3/7 activity imaging in PANC-1 cells; conditions: PANC-1, 0.5 µM, 72 h, normalised to DMSO control (n = 1)
PANC-1 cells [2] = assay: Holographic microscopy morphometry (HoloMonitor M4); assay type: cell-based, human; conditions: PANC-1, 0.5 µM, 72 h
Description: To follow the morphometric changes, a holographic transmission microscope (HoloMonitor M4; Phase Holographic Imaging AB, Lund, Sweden) was used, which uses a laser to produce 3D images of the cells[51],[52]. This […] imaging technique allows us to monitor cell morphological changes in real-time. First, the cells were seeded at a concentration of 3.5 × 10^5 cells/flask/4000 µL cell culture medium. […] At least 5 images were taken from each culture dish, taking care to assess different fields of view. These images were evaluated using the microscope software (Hstudio M4). We assessed the average area and the average optical thickness of the cells.

PANC-1 cells [3] = assay: xCELLigence SP impedimetric cell viability; conditions: Homo sapiens, PANC-1, 72 h
PANC-1 cells [4] = assay: Annexin-V/7AAD early and late apoptosis flow cytometry; assay type: cell-based, human; conditions: PANC-1, 0.5 µΜ, 72 h
Description: For apoptosis measurements, Annexin-V positive/7AAD (7-Aminoactinomycin D) negative, early apoptotic and Annexin-V/ 7AAD double positive, late apoptotic cells were differentiated using a BD FACSCalibur (BD FACSCalibur, Becton-Dickinson, San Jose, CA, USA) flow cytometer[49],[50]. […] After 24, 48, and 72 h treatment, cells were harvested with 300 µL TrypLE (Sigma Ltd. St. Louis, MO, USA). Fresh cell culture medium was then added to stop the effect of TrypLE and the harvested cells were centrifuged for 5 min (300 g). Then, the supernatant was removed, and cells were resuspended in 300 µL of Annexin binding buffer (Sony Biotechnology, Weybridge, UK). For labelling, 3–3 µL of Annexin-V-FITC (Sony Biotechnology, Weybridge, UK) and 7AAD (Sony Biotechnology, Weybridge, UK) were added, followed by 10 min incubation at room temperature in the dark. For flow cytometric analysis (BD FACSCalibur, Becton–Dickinson, San Jose, CA, USA), a minimum of 10^4 cells/sample was measured. Annexin-V was detected using the FL-1 channel (530/30), and 7AAD was detected using the FL-3 channel (670 LP). In each treatment group, 3 parallel samples were analysed. The results were evaluated using Flowing Software 2.5.1 (Turku Centre of Biotechnology, Turku, Finland).

PANC-1 cells [5] = assay: Cell cycle analysis (PI, flow cytometry)
HSP60 = assay: Human Apoptosis Array in PANC-1 cells; conditions: PANC-1, 0.5 µM, 72 h
COLO-205 cells = assay: alamarBlue cell viability; conditions: Homo sapiens, COLO 205, 72 h, read-out: Viability (%) after 72-h treatment
p53 = assay: qPCR apoptotic gene expression in PANC-1 cells; conditions: PANC-1, 25 µM, 48 h, normalised to DMSO control
phospho-p53 (S15) = assay: Human Apoptosis Array in PANC-1 cells; conditions: PANC-1, 0.5 µM, 72 h
TRAIL = assay: qPCR apoptotic gene expression in PANC-1 cells; conditions: PANC-1, 25 µM, any of the time points (3-48 h)
phospho-p53 (S392) = assay: Human Apoptosis Array in PANC-1 cells; conditions: PANC-1, 0.5 µM, 72 h
EBC-1 cells = assay: alamarBlue cell viability; conditions: Homo sapiens, EBC-1, 72 h
cleaved caspase-3 = assay: Human Apoptosis Array in PANC-1 cells; conditions: PANC-1, 0.5 µM, 72 h
phospho-p53 (S46) = assay: Human Apoptosis Array in PANC-1 cells; conditions: PANC-1, 0.5 µM, 72 h
A2058 cells = assay: alamarBlue cell viability; conditions: Homo sapiens, A2058, 72 h, read-out: Viability (%) after 72-h treatment
in vitro [6] = conditions: human
MIA PaCa-2 cells [7] = assay: alamarBlue cell viability; conditions: Homo sapiens, MIA PaCa-2, 72 h
SMAC = assay: Human Apoptosis Array in PANC-1 cells; conditions: PANC-1, 0.5 µM, 72 h
in vitro [8] = conditions: mouse
cIAP-1 = assay: Human Apoptosis Array in PANC-1 cells; conditions: PANC-1, 0.5 µM, 72 h
[9] = cited from earlier work
XIAP = assay: Human Apoptosis Array in PANC-1 cells; conditions: PANC-1, 0.5 µM, 72 h
FADD = assay: Human Apoptosis Array in PANC-1 cells; conditions: PANC-1, 0.5 µM, 72 h
[10] = read-out: IC50 values (μM) 72 hours
[11] = read-out: Viability (%) after 72-h treatment

In the case of Cc1ccccc1CN1C(=O)C2=C(CCN(Cc3ccccc3)C2)N2CCN=C12 [ONC201, reference compound], the “Effect on cell cycle” value (MIA PaCa-2 cells [1]) is reported as “did not have any influence”, the “Number of caspase-3/7 active cells, increase” value (caspase-3/7) is reported as 6.6 fold and the “Effect on cell morphology” value (PANC-1 cells [2]) is reported as “did not affect cell morphology”. It also gave an IC50 (PANC-1 cells [3]; [10]) of 6.1 µM, a viability at 0.5 µM (PANC-1 cells [3]; [11]) of 105 ± 5.2% and a viability at 10 µM (PANC-1 cells [3]; [11]) of 16 ± 2.4%. The viability at 25 µM (PANC-1 cells [3]; [11]) was 10.2 ± 2.2%, the Apoptosis-inducing effect (PANC-1 cells [4]) was “no apoptosis-inducing effect” and the “Effect on cell cycle” value (PANC-1 cells [5]; PANC-1, 0.5 µM, 48 h) was “did not have any influence”. The “Increase in cell number in the G2/M phase” value (PANC-1 cells [5]; PANC-1, 10 and 25 µM, 72 h) was 2.1 fold, the HSP60 protein level (HSP60) was “increase” and the viability at 0.5 µM (COLO-205 cells) was 97 ± 2.5%. For the same molecule, the viability at 10 µM (COLO-205 cells) was 69.7 ± 2.4%, the viability at 25 µM (COLO-205 cells) was 71 ± 0.7% and the “p53 mRNA expression” value (p53) was 3.3 fold. The “phospho-p53 (S15) protein level” value (phospho-p53 (S15)) was “significantly increased”, the “TRAIL induction (mRNA)” value (TRAIL) was “not detected” and the “phospho-p53 (S392) protein level” value (phospho-p53 (S392)) was “significantly increased”. For the same molecule, the IC50 (EBC-1 cells; [10]) was 5.72 µM, the viability at 0.5 µM (EBC-1 cells; [11]) was 101 ± 1.6% and the viability at 10 µM (EBC-1 cells; [11]) was 47.1 ± 2.2%. The viability at 25 µM (EBC-1 cells; [11]) was 45.5 ± 2%, the “cleaved caspase-3 protein level” value (cleaved caspase-3) was “significantly increased” and the “phospho-p53 (S46) protein level” value (phospho-p53 (S46)) was “significantly increased”. For the same molecule, the viability at 0.5 µM (A2058 cells) was 101 ± 1.7%, the viability at 10 µM (A2058 cells) was 73.7 ± 4.5% and the viability at 25 µM (A2058 cells) was 62.1 ± 8.7%. It also gave a viability at 72 h, 0.37 µM (in vitro [6]) of 115 ± 1.4%, a viability at 72 h, 8.6 µM (in vitro [6]) of 88.3 ± 7.4% and a viability at 72 h, 25 µM (in vitro [6]) of 74.9 ± 8.6%. It also gave an IC50 (MIA PaCa-2 cells [7]; [10]) of 1.12 µM, a viability at 0.5 µM (MIA PaCa-2 cells [7]; [11]) of 77.6 ± 2.3% and a viability at 10 µM (MIA PaCa-2 cells [7]; [11]) of 44.6 ± 2%. The viability at 25 µM (MIA PaCa-2 cells [7]; [11]) was 55 ± 1.6%, the SMAC protein level (SMAC) was “significantly increased” and the viability at 72 h, 0.5 µM (in vitro [8]) was 99.4 ± 1.8%. For the same molecule, the viability at 72 h, 10 µM (in vitro [8]) was 89.2 ± 6.3%, the viability at 72 h, 25 µM (in vitro [8]) was 89 ± 5.6% and the cIAP-1 protein level (cIAP-1) was “increase”. For the same molecule, the logP [9] was 2.3, the XIAP protein level (XIAP) was “increase” and the FADD protein level (FADD) was “significantly increased”.

— paper PMC12059162 (Scientific Reports, 2025)
